Drawing on BindingDB's records for patent US9260439 (Pfizer, 2016), this text covers Ki for 5 molecules.

Structures are written as SMILES.

By Ki is commonly meant the equilibrium dissociation constant of an inhibitor or competing ligand from its target.

This experiment deals with Phosphatidylinositol 3-kinase regulatory subunit alpha [Q431L,Q432E,D433V,Q434L,V435F,V436Q,K437G,E438P]/4,5-bisphosphate 3-kinase catalytic subunit alpha isoform (Homo sapiens, UniProt P42336). As to the kind of experiment: Biochemical Assay. The text has this: PI3KA_Act: Genes encoding for full length p110alpha and p85alpha nSH-iSH2=niSH2 (p85a aminoacids 322-600) subunits of PI3Kalpha complex were subcloned from existing constructs into pFASTBAC Dual vector (Life Technologies, Carlsbad, Calif.) using standard cloning procedures. Gene encoding p110alpha subunit was subcloned into polyhedrine promoter while gene encoding p85alpha niSH2 domains was subcloned into p10 promoter. Additionally, Human Rhinovirus 3C Protease (HRV 3C) site was introduced between nSH2 and iSH2, replacing aminoacids 431-438 of p85alpha with […] HRV 3C recognition sequence, using standard QuickChange mutagenesis protocol (Agilent Technologies, CA). Recombinant baculovirus was generated using Bac-to-Bac protocol (Life Technologies, Carlsbad, Calif.). The biochemical assays of kinase activity of full-length PI3Kalpha (full-length p110alpha/p85a) or truncated PI3Kalpha (p110alpha/iSH2 p85a) were conducted using a fluorescence polarization format similar to the procedure of Yuan J., et al., (2011) "PF-04691502, a Potent and Selective Oral Inhibitor of PI3K and mTOR Kinases with Antitumor Activity, Mol Cancer Ther. 10, 2189-2199.

Molecule `C[C@]1(N2CCc3c(-c4cnc(N)nc4)nc(N4CCOCC4)nc32)CCN(C(=O)C2(CO)CC2)C1` [US9260439, 339] had a Ki of 0.08 nM.
The value for `CC(=O)NCC(=O)N1CC(N2CCc3c(-c4cnc(N)nc4)nc(N4CCOC[C@@H]4C)nc32)C1` [US9260439, 201] was 1.4 nM; that for `C[C@]1(N2CCc3c(-c4cnc(N)nc4)nc(N4CCOCC4)nc32)CCN(C(=O)C2(F)CC2)C1` [US9260439, 331] was under 0.018 nM; that for `C[C@]1(N2CCc3c(-c4cnc(N)nc4)nc(N4CCOCC4)nc32)CCN(C(=O)C2(O)CC2)C1` [US9260439, 338] was 0.071 nM.
The value for `CC(C)(CO)C(=O)N1CC[C@](C)(N2CCc3c(-c4cnc(N)nc4)nc(N4CCOCC4)nc32)C1` [US9260439, 277] was 0.034 nM.
